Reference: ChEMBL document CHEMBL3797052 (Eur J Med Chem, 2016)

System: NCI-H460
Test: Antiproliferative activity against human NCI-H460 cells assessed as cell growth at 10^-8 M after 48 hrs by sulforhodamine B assay
Format: functional
Conditions: NCI-H460, 48 h, read-out: Activity

Structure (SMILES)	growth at 0.01 µM [%]
CNC(=O)c1cc(Oc2ccc3nc(NC(=O)Nc4cc(C(F)(F)F)cc(C(F)(F)F)c4)sc3c2)ccn1	102

System: not listed separately
Test: Antiproliferative activity against human HCT116 cells assessed as cell growth at 10^-6 M after 48 hrs by sulforhodamine B assay
Format: functional
Conditions: HCT-116, 48 h, read-out: Activity

Structure (SMILES)	growth at 1 µM [%]
CNC(=O)c1cc(Oc2ccc3nc(NC(=O)Nc4cc(C(F)(F)F)cc(C(F)(F)F)c4)sc3c2)ccn1	57

System: not listed separately
Test: Antiproliferative activity against human RXF393 cells assessed as cell growth at 10^-7 M after 48 hrs by sulforhodamine B assay
Format: functional
Conditions: RXF 393, 48 h, read-out: Activity

Structure (SMILES)	growth at 0.1 µM [%]
CNC(=O)c1cc(Oc2ccc3nc(NC(=O)Nc4cc(C(F)(F)F)cc(C(F)(F)F)c4)sc3c2)ccn1	91

System: not listed separately
Test: Antiproliferative activity against human Caki1 cells assessed as cell growth at 10^-4 M after 48 hrs by sulforhodamine B assay
Format: functional
Conditions: CAKI-1, 48 h, read-out: Activity

Structure (SMILES)	growth at 100 µM [%]
CNC(=O)c1cc(Oc2ccc3nc(NC(=O)Nc4cc(C(F)(F)F)cc(C(F)(F)F)c4)sc3c2)ccn1	-83

System: not listed separately
Test: Antiproliferative activity against human COLO205 cells assessed as cell growth at 10^-4 M after 48 hrs by sulforhodamine B assay
Format: functional
Conditions: COLO 205, 48 h, read-out: Activity

Structure (SMILES)	growth at 100 µM [%]
CNC(=O)c1cc(Oc2ccc3nc(NC(=O)Nc4cc(C(F)(F)F)cc(C(F)(F)F)c4)sc3c2)ccn1	-65

System: U-251
Test: Antiproliferative activity against human U251 cells assessed as cell growth at 10^-6 M after 48 hrs by sulforhodamine B assay
Format: functional
Conditions: U-251, 48 h, read-out: Activity

Structure (SMILES)	growth at 1 µM [%]
CNC(=O)c1cc(Oc2ccc3nc(NC(=O)Nc4cc(C(F)(F)F)cc(C(F)(F)F)c4)sc3c2)ccn1	51

System: MDA-MB-468
Test: Antiproliferative activity against human MDA-MB-468 cells assessed as growth inhibition after 48 hrs by sulforhodamine B assay
Format: functional
Conditions: MDA-MB-468, 48 h

Structure (SMILES)	GI50 [nM]	TGI [nM]
CNC(=O)c1cc(Oc2ccc3nc(NC(=O)Nc4cc(C(F)(F)F)cc(C(F)(F)F)c4)sc3c2)ccn1	399	1750

Same assay, conditions: MDA-MB-468, 48 h, read-out: LC50 (the source's name)

Structure (SMILES)	CC50 [nM]
CNC(=O)c1cc(Oc2ccc3nc(NC(=O)Nc4cc(C(F)(F)F)cc(C(F)(F)F)c4)sc3c2)ccn1	6080

System: HT-29
Test: Antiproliferative activity against human HT-29 cells assessed as growth inhibition after 48 hrs by sulforhodamine B assay
Format: functional
Conditions: HT-29, 48 h

Structure (SMILES)	GI50 [nM]	LC50 [nM]	TGI [nM]
CNC(=O)c1cc(Oc2ccc3nc(NC(=O)Nc4cc(C(F)(F)F)cc(C(F)(F)F)c4)sc3c2)ccn1	1210	6170	2730

System: not listed separately
Test: Antiproliferative activity against human PC3 cells assessed as cell growth at 10^-4 M after 48 hrs by sulforhodamine B assay
Format: functional
Conditions: PC-3, 48 h, read-out: Activity

Structure (SMILES)	growth at 100 µM [%]
CNC(=O)c1cc(Oc2ccc3nc(NC(=O)Nc4cc(C(F)(F)F)cc(C(F)(F)F)c4)sc3c2)ccn1	-75

System: not listed separately
Test: Antiproliferative activity against human BT549 cells assessed as cell growth at 10^-6 M after 48 hrs by sulforhodamine B assay
Format: functional
Conditions: BT-549, 48 h, read-out: Activity

Structure (SMILES)	growth at 1 µM [%]
CNC(=O)c1cc(Oc2ccc3nc(NC(=O)Nc4cc(C(F)(F)F)cc(C(F)(F)F)c4)sc3c2)ccn1	67

System: not listed separately
Test: Antiproliferative activity against human OVCAR5 cells assessed as growth inhibition after 48 hrs by sulforhodamine B assay
Format: functional
Conditions: OVCAR-5, 48 h

Structure (SMILES)	GI50 [nM]	TGI [nM]
CNC(=O)c1cc(Oc2ccc3nc(NC(=O)Nc4cc(C(F)(F)F)cc(C(F)(F)F)c4)sc3c2)ccn1	1550	3520

Same assay, conditions: OVCAR-5, 48 h, read-out: LC50 (the source's name)

Structure (SMILES)	CC50 [nM]
CNC(=O)c1cc(Oc2ccc3nc(NC(=O)Nc4cc(C(F)(F)F)cc(C(F)(F)F)c4)sc3c2)ccn1	7970

System: SN12C
Test: Antiproliferative activity against human SN12C cells assessed as cell growth at 10^-8 M after 48 hrs by sulforhodamine B assay
Format: functional
Conditions: read-out: Activity

Structure (SMILES)	growth at 0.01 µM [%]
CNC(=O)c1cc(Oc2ccc3nc(NC(=O)Nc4cc(C(F)(F)F)cc(C(F)(F)F)c4)sc3c2)ccn1	99

System: not listed separately
Test: Antiproliferative activity against human PC3 cells assessed as cell growth at 10^-6 M after 48 hrs by sulforhodamine B assay
Format: functional
Conditions: PC-3, 48 h, read-out: Activity

Structure (SMILES)	growth at 1 µM [%]
CNC(=O)c1cc(Oc2ccc3nc(NC(=O)Nc4cc(C(F)(F)F)cc(C(F)(F)F)c4)sc3c2)ccn1	37

System: NCI-H23
Test: Antiproliferative activity against human NCI-H23 cells assessed as cell growth at 10^-8 M after 48 hrs by sulforhodamine B assay
Format: functional
Conditions: NCI-H23, 48 h, read-out: Activity

Structure (SMILES)	growth at 0.01 µM [%]
CNC(=O)c1cc(Oc2ccc3nc(NC(=O)Nc4cc(C(F)(F)F)cc(C(F)(F)F)c4)sc3c2)ccn1	93

System: Malme-3M
Test: Antiproliferative activity against human MALME-3M cells assessed as cell growth at 10^-6 M after 48 hrs by sulforhodamine B assay
Format: functional
Conditions: read-out: Activity

Structure (SMILES)	growth at 1 µM [%]
CNC(=O)c1cc(Oc2ccc3nc(NC(=O)Nc4cc(C(F)(F)F)cc(C(F)(F)F)c4)sc3c2)ccn1	48

System: not listed separately
Test: Antiproliferative activity against human IGROV1 cells assessed as growth inhibition after 48 hrs by sulforhodamine B assay
Format: functional
Conditions: IGROV-1, 48 h

Structure (SMILES)	GI50 [nM]	TGI [nM]
CNC(=O)c1cc(Oc2ccc3nc(NC(=O)Nc4cc(C(F)(F)F)cc(C(F)(F)F)c4)sc3c2)ccn1	1250	3160

Same assay, conditions: IGROV-1, 48 h, read-out: LC50 (the source's name)

Structure (SMILES)	CC50 [nM]
CNC(=O)c1cc(Oc2ccc3nc(NC(=O)Nc4cc(C(F)(F)F)cc(C(F)(F)F)c4)sc3c2)ccn1	8010
